The values that follow come from paper PMC3677616, “Interaction of Human Dopa Decarboxylase with L-Dopa: Spectroscopic and Kinetic Studies as a Function of pH” (BioMed Research International, 2013).

Series [1] has as its target T1, hDDC (human Dopa decarboxylase) (Homo sapiens, UniProt P20711).
T1 construct: gene DDC; homodimer
T1 sequence (P20711 1-480): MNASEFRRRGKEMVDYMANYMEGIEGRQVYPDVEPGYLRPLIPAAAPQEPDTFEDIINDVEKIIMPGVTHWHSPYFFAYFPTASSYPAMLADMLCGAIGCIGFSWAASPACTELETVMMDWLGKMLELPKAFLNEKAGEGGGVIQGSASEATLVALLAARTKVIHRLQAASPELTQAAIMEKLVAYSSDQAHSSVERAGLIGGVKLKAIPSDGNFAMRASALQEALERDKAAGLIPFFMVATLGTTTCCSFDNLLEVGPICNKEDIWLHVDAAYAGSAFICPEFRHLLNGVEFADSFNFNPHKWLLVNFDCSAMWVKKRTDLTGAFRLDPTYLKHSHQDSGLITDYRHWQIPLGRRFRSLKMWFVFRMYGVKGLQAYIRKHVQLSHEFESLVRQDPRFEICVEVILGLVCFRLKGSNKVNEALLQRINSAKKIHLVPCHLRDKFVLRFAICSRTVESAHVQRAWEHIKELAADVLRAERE
The series is described as follows: stopped-flow absorbance at […] nm, hyperbolic fit of kobs (two-step binding). Particulars: read-out: K1.

Series [2] addresses T1, hDDC (human Dopa decarboxylase). The series is described as follows: quenching of intrinsic fluorescence of apoenzyme, tight-binding quadratic fit. Conditions: read-out: KD(PLP).
Substrate in series [3]: N[C@@H](Cc1ccc(O)c(O)c1)C(=O)O
Description: steady-state decarboxylation, spectrophotometric assay, Michaelis-Menten fit. Conditions: pH 6.0, 50 mM Bis-Tris-propane, 10 μM PLP, 25°C. The series is classed as biochemical, Homo sapiens.

As a reminder, the Km is the substrate concentration at which the rate is half of its maximum. The kcat is the number of substrate molecules converted per active site and unit of time at saturation.

Take `N[C@@H](Cc1ccc(O)c(O)c1)C(=O)O` [L-Dopa]: in series [1], the Kd was found to be 320 ± 20 µM.

For `Cc1ncc(COP(=O)(O)O)c(C=O)c1O` [PLP], in series [2], the Kd was 200 nM.

B1: hDDC (human Dopa decarboxylase) (Homo sapiens) (protein)
chain: MNASEFRRRGKEMVDYMANYMEGIEGRQVYPDVEPGYLRPLIPAAAPQEPDTFEDIINDVEKIIMPGVTHWHSPYFFAYFPTASSYPAMLADMLCGAIGCIGFSWAASPACTELETVMMDWLGKMLELPKAFLNEKAGEGGGVIQGSASEATLVALLAARTKVIHRLQAASPELTQAAIMEKLVAYSSDQAHSSVERAGLIGGVKLKAIPSDGNFAMRASALQEALERDKAAGLIPFFMVATLGTTTCCSFDNLLEVGPICNKEDIWLHVDAAYAGSAFICPEFRHLLNGVEFADSFNFNPHKWLLVNFDCSAMWVKKRTDLTGAFRLDPTYLKHSHQDSGLITDYRHWQIPLGRRFRSLKMWFVFRMYGVKGLQAYIRKHVQLSHEFESLVRQDPRFEICVEVILGLVCFRLKGSNKVNEALLQRINSAKKIHLVPCHLRDKFVLRFAICSRTVESAHVQRAWEHIKELAADVLRAERE
notes: homodimer
For the molecule B1, in series [3], the Km is given as 0.23 ± 0.03 mM and the catalytic constant (kcat) is 3 s⁻¹.
